Here are results for two compounds from patent publication US7601333B2, “Use of a tetrapeptide AcSDKP (SEQ ID No. 1) analog resistant to the angiotensin I converting enzyme for measuring glomerular filtration rate in a human or an animal and kit containing same” (Assistance Publique-Hopitaux de Paris, priority 2003, dated 2009).

Read-outs that look alike come from different tables or passages of the source. Residues, ends and D or L forms follow the SMILES beside them.

Assay type in all cases: in vitro ADME
For one data set, the system named is T1, ACE (rat lung).
T1 construct: incubated with ground rat lung material (at 0.1 mg/ml); from tissue; host or cells: rat lung (ground material)
As to the kind of experiment: In vitro degradation in the presence of rat lung ACE. The settings on record: ground rat lung material (rat lung ACE), peptide 100 nM, ground rat lung material 0.1 mg/ml, pH 7.5, read-out: percentage of peptide assayed relative to the control; for remaining at 2 h, 100 nM: T120 min; for remaining at 0.5 h, 100 nM: T30 min; for remaining at 1 h, 100 nM: T60 min; for remaining at 4 h, 100 nM: T240 min. As to the method:
(§1) The peptides (100 nM) were incubated with ground rat lung material (at 0.1 mg/ml) or human converting enzyme (5 mU final concentration) in the presence or absence of captopril (10 μM final concentration) in 0.1 M Tris/HCl buffer+0.3 mM NaCl, pH=7.5. A control comprising only the peptides in the presence of 0.1 M Tris/HCl buffer+0.3 mM NaCl, pH=7.5, was carried out.
(§2) A methanol extraction was carried out in order to stop the reaction. At each time, the concentration of the nondegraded peptide was measured by enzyme immunoassay.
(§3) The results were expressed as percentage of peptide assayed relative to the control for each sample time.

A further data set has as its target T2, rat lung ACE (Rattus norvegicus, UniProt P47820).
T2 construct: incubated with ground rat lung material (at 0.1 mg/ml); from tissue; host or cells: rat lung (ground material)
T2 sequence (P47820 36-1313): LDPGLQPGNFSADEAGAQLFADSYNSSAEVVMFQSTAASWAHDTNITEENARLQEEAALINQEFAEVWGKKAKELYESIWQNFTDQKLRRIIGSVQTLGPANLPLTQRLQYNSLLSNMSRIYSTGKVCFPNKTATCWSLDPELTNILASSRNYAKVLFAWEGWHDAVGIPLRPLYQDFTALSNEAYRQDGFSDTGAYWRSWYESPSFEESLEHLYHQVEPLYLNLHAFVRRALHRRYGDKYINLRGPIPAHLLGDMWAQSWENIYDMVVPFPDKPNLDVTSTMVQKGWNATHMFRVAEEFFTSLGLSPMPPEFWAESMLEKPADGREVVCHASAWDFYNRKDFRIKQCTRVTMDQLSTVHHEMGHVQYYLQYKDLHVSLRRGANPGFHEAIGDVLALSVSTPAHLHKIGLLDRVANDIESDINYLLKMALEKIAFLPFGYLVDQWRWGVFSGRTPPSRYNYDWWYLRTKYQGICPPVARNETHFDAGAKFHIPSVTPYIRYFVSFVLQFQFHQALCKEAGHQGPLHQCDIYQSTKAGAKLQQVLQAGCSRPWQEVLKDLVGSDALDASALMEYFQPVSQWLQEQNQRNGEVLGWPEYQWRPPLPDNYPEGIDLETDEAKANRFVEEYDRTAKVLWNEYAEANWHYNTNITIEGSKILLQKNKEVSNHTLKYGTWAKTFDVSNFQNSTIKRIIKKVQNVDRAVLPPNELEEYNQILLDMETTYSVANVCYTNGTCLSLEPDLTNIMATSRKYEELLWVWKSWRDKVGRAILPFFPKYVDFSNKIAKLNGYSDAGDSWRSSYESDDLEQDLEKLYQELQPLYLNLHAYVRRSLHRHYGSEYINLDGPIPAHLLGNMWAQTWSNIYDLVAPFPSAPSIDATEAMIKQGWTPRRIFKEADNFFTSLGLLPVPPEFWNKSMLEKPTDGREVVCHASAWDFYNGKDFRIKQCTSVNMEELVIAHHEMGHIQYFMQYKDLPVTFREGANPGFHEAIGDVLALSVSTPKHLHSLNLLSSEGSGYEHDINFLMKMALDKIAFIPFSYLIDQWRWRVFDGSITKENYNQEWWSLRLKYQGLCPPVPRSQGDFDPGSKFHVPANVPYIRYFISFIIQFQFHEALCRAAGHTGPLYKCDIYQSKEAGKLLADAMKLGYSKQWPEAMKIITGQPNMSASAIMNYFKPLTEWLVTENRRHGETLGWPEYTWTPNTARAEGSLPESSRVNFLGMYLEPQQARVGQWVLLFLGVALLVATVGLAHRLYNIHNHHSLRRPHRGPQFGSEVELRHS
The description is as above. Particulars: for percentage of peptide assayed relative to the control: peptide 100 nM, ground rat lung material 0.1 mg/ml, pH 7.5. As to the method:
as §1, §2, §3

Data set [1] deals with human ACE (Homo sapiens, UniProt P12821). The data set can be described thus: In vitro degradation in the presence of human ACE. How it is done:
as §1, §2, §3

For data set [2], the system named is human ACE. The data set can be described thus: In vitro degradation in the presence of human ACE. Particulars: human converting enzyme (human ACE), peptide 100 nM, human converting enzyme 5 mU, pH 7.5, read-out: percentage of peptide assayed relative to the control; for remaining at 10 min, 100 nM: T10 min; for remaining at 1 h, 100 nM: T60 min; for remaining at 2 h, 100 nM: T120 min; for remaining at 4 h, 100 nM: T240 min; for remaining at 24 h, 100 nM: T1440 min; for remaining at 0.5 h, 100 nM: T30 min. As to the method:
as §1, §2, §3

Where [3] appears, read: with captopril 10 μM, + captopril 10 μM.

human ACE (Homo sapiens, UniProt P12821), sequence (P12821 30-1306): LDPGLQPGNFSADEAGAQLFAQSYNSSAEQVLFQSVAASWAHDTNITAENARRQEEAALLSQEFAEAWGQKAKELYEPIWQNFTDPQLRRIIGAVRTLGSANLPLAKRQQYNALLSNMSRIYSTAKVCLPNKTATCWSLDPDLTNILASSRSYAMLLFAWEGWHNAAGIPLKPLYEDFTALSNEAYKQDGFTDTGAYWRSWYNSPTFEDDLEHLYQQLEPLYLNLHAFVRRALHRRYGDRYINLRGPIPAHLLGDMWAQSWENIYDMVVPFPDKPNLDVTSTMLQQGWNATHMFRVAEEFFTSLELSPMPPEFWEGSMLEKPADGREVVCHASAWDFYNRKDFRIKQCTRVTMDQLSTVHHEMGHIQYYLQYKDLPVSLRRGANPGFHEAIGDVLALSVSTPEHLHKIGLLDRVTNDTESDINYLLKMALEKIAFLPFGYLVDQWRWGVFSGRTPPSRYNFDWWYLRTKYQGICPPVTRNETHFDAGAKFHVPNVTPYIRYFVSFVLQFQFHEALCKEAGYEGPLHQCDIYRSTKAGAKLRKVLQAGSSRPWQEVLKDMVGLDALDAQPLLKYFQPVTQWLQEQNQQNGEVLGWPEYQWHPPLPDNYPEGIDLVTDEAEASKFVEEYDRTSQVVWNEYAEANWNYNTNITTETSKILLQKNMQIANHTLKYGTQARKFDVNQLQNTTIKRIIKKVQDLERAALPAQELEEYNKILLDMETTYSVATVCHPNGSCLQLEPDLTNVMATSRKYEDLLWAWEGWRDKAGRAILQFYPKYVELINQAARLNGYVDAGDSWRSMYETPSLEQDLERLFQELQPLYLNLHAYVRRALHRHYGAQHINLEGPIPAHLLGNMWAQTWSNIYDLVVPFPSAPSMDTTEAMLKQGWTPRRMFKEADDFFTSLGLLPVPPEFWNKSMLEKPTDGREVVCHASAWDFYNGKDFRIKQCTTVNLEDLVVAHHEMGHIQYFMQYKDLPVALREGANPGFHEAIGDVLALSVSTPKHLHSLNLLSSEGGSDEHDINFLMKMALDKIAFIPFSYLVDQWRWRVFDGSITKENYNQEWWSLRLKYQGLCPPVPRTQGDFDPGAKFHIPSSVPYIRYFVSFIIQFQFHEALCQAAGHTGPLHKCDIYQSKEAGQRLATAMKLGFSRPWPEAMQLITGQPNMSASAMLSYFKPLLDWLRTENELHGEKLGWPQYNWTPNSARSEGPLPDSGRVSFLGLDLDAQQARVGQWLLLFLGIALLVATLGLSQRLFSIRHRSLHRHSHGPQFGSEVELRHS

As to `CC(=O)N[C@@H](CO)C(=O)N[C@@H](CC(=O)O)C(=O)N[C@@H](CCCCN)C(=O)N1CCC[C@H]1C(N)=O` [AcSDKP-NH2, N-acetyl-Ser-Asp-Lys-Pro-NH2] (Ac-SDKP-NH2), the remaining at 2 h, 100 nM in the data set on ACE (rat lung) (setting [3]) amounted to 109%; in the data set with ACE (rat lung) (without captopril) it was 95%; with human ACE [2] (setting [3]), 95%; with human ACE [2] (without captopril), 116%. The remaining at 0.5 h, 100 nM with ACE (rat lung) (without captopril) and in the data set on human ACE [2] (without captopril) was 100% throughout. In addition, the remaining at 1 h, 100 nM was found to be 65% with ACE (rat lung) (without captopril), 78% in the data set with human ACE [2] (setting [3]) and 116% in the data set with human ACE [2] (without captopril). In addition, the “degradation by rat ACE” value on rat lung ACE (in vitro) is given as “does not appear to be degraded”. The concentrations found on rat lung ACE (in vitro, relative to control) turned out to be 100±25%; on human ACE [1] (in vitro, relative to control) it was 100±25%. The “percentage of peptide assayed relative to the control” value at rat lung ACE (T30 min, + captopril 10 μM) was 125%; at rat lung ACE (T60 min, + captopril 10 μM), 65%; at rat lung ACE (T240 min, + captopril 10 μM), 136%; on rat lung ACE (T240 min, without captopril) it was 126%; at human ACE [1] (peptide 100 nM, human converting enzyme 5 mU, pH 7.5, T30 min, + captopril 10 μM), 162%. Besides, the “degradation by ACE of human origin” value at human ACE [1] (in vitro) is on record as “does not appear to be degraded”. For the same compound, the remaining at 10 min, 100 nM in the data set with human ACE [2] (setting [3]) is 90%; with human ACE [2] (without captopril) it was 79%. Besides, the figures for the remaining at 4 h, 100 nM with human ACE [2] (setting [3]) and with human ACE [2] (without captopril) were 104% and 107%, respectively. For the same compound, the remaining at 24 h, 100 nM in the data set on human ACE [2] (setting [3]) amounted to 117%; in the data set on human ACE [2] (without captopril), 86%.

For the compound `CC(=O)N[C@@H](CO)C(=O)N[C@@H](CC(=O)O)C(=O)N[C@@H](CCCCN)C(=O)N1CCC[C@H]1C(=O)O` [AcSDKP, N-acetyl-Ser-Asp-Lys-Pro] (Ac-SDKP-OH; C-terminus assumed), in the data set on ACE (rat lung) (setting [3]), the remaining at 1 h, 100 nM stood at 111%; the remaining at 2 h, 100 nM turned out to be 75%; the remaining at 4 h, 100 nM was 89%. Also, in the data set on ACE (rat lung) (without captopril), the remaining at 0.5 h, 100 nM was found to be 28%; the remaining at 1 h, 100 nM was 9%; the remaining at 2 h, 100 nM stood at 5%; the remaining at 4 h, 100 nM was 5%. Besides, the “degradation by rat ACE” value on rat lung ACE (in vitro) is reported as “degraded”. The “percentage of peptide assayed relative to the control” value at rat lung ACE (T30 min, + captopril 10 μM) was determined as 129%. Moreover, at human ACE [1] (in vitro), the “degradation by ACE of human origin” value is reported as “degraded”. For the same compound, in the data set on human ACE [2] (setting [3]), the remaining at 10 min, 100 nM came to 90%; the remaining at 0.5 h, 100 nM was found to be 100%; the remaining at 1 h, 100 nM came out at 85%; the remaining at 2 h, 100 nM was 85%. Further, in the data set on human ACE [2] (setting [3]), the remaining at 4 h, 100 nM was 100%. In addition, in the data set with human ACE [2] (without captopril), the remaining at 10 min, 100 nM was determined as 82%; the remaining at 0.5 h, 100 nM amounted to 75%; the remaining at 1 h, 100 nM was found to be 50%; the remaining at 2 h, 100 nM was 25%. The remaining at 4 h, 100 nM in the data set on human ACE [2] (without captopril) came to 7%.
